Source: ChEMBL document CHEMBL4888484, “Replenishing the malaria drug discovery pipeline: Screening and hit evaluation of the MMV Hit Generation Library 1 (HGL1) against asexual blood stage Plasmodium falciparum ,using a nano luciferase reporter read-out” (2022)

Assays:
Plasmodium falciparum [1] = test: Hit confirmation in dose-response curve in NF54 nanoGlo assay, at 72h; assay type: functional, organism-based, Erythrocyte; design: timepoint 72 hour; conditions: Plasmodium falciparum, NF54, Erythrocyte, 72 h
Plasmodium falciparum [2] = test: Hit confirmation in dose-response curve in NF54 pLDH assay, at 72h; assay type: functional, organism-based; design: timepoint 72 hour; conditions: NF54, Erythrocyte
Plasmodium falciparum [3] = test: Hit confirmation in dose-response curve in Dd2 pLDH assay, at 72h; assay type: functional, organism-based; design: timepoint 72 hour; conditions: Dd2, Erythrocyte
Plasmodium falciparum [4] = test: Hit confirmation in dose-response curve in NF54 nanoGlo assay, at 12h; assay type: functional, organism-based, Erythrocyte; design: timepoint 12 hour; conditions: Plasmodium falciparum, NF54, Erythrocyte, 12 h
[5] = Hit confirmation in dose-response curve in HepG2 cytotoxicity assay, at 72h; assay type: toxicity, cell-based; design: timepoint 72 hour; conditions: human, HepG2 cells

IC50 (Plasmodium falciparum [1]) [µM]	IC50 (Plasmodium falciparum [2]) [µM]	IC50 (Plasmodium falciparum [3]) [µM]	IC50 (Plasmodium falciparum [4]) [µM]	Compound	IC50 at 72 h [5] [µM]
1.23	1.35	1	1.74	CCN(CCN(C)C)C(=O)c1cccc(-c2ccc3nccc(N)c3c2)c1	> 10
3.09	7.94	7.24	> 10	c1ccc(-c2noc(-c3ccc(NC4CCCCC4)nn3)n2)cc1	> 10
3.02	10.7	6.76	2.95	CCc1cccc(NC(=O)N2CCC3(CC2)C(=O)N(CC(=O)Nc2ccc(F)cc2)CN3c2ccccc2)c1	> 10
2.95	2.95	3.16	> 10	COc1ccc(C2=CN(CC(=O)c3ccc(Cl)cc3)C3=CCCCCN23)cc1	> 10
4.07	> 10	> 10	4.47	CN1CCN(Cc2cc3cc4c(cc3nc2-c2ccc(Cl)cc2)OCO4)CC1=O	> 10
0.933	3.24	2.19	2.82	COc1cccc(S(=O)(=O)N2CCCN(Cc3ccncc3)[C@H](c3ccccc3)CC(=O)NCC2)c1	> 10
2.45	7.24	8.32	3.8	CCC1=Nc2ccccc2N=C(NC(=O)C(C)C)[C@H]1c1ccc(F)cc1	> 10
0.891	1.66	1.2	> 10	Cc1ccc(-c2c[n+](-c3ccc(OC(F)F)cc3)c3n2CCCCC3)cc1	> 10
3.98	5.01	> 10	> 10	O=C(Cc1ccc(N(Cc2cccc(F)c2)C(=O)C2CCCC2)cc1)NCCN1CCCC1	> 10
3.72	1.26	3.63	> 10	CCn1ncc(CN2CC[C@@H]3C(=O)NCCCCCCN(Cc4ccncc4)[C@@H]3C2)c1C	> 10
5.01	> 10	> 10	7.94	CCOC(=O)C1CCC(CN(Cc2ccc(OC)cc2)S(=O)(=O)c2cc(C(=O)Nc3ccc(OCC)cc3)ccc2F)CC1 (stereo not given)	> 10
2.04	8.32	6.31	2.4	NC(=O)c1ccccc1NC(=O)C1CCN(c2cc(C3CC3)ncn2)CC1	> 10
4.07	> 10	> 10	8.91	COc1ccc(CCNC(=O)C2CCN(c3nccn4nc5c(c34)CCCC5)CC2)cc1OC	> 10
3.02	10	6.61	> 10	CC(C)c1ccc(Oc2cnn(-c3cccc(Cl)c3)c(=O)c2Nc2cccc(C(=O)NC3CC3)c2)cc1	> 10
2.82	1.82	4.68	> 10	O=C(c1cc(-c2ccco2)n[nH]1)N1CCC(N2CCC(Oc3ccccc3F)CC2)CC1	> 10

Continued, molecule first:

Compound	IC50 (Plasmodium falciparum [1]) [µM]	IC50 (Plasmodium falciparum [2]) [µM]	IC50 (Plasmodium falciparum [3]) [µM]	IC50 (Plasmodium falciparum [4]) [µM]	IC50 at 72 h [5] [µM]
Cc1ccc(S(=O)(=O)c2c(NS(=O)(=O)c3ccccc3)n(CCc3ccccc3)c3nc4ccccc4nc23)cc1	1.45	3.8	3.02	1.91	> 10
COc1ccc2c(c1)[n+](CC(=O)c1ccc(-c3ccc(Br)cc3)cc1)c(CO)n2C	1.91	5.62	5.37	> 10	> 10
CCCC[C@H](Oc1ccc(C(C)(C)CC)cc1C(C)(C)CC)C(=O)Nc1ccc(NC(=O)C(F)(F)C(F)(F)C(F)(F)F)c(O)c1	2.95	> 10	3.72	7.24	> 10
Cc1c(-c2ccc(F)cc2)[nH]c2ccc(CNc3nccc(N(C)C)n3)cc12	1.95	3.8	3.31	3.89	> 10
COc1ccc(CNC(=O)c2ccc(N3C(=O)[C@@H]4Cc5c([nH]c6ccccc56)C(c5cccc(OC)c5)N4C3=O)cc2)cc1 (stereo not given in full)	3.16	> 10	8.91	6.92	> 10
c1ccc(-c2cn3c(n2)c(-c2ccc4ccccc4n2)cc2ccccc23)cc1	8.13	> 10	> 10	10.5	> 10
C[n+]1ccccc1/C=C/c1c[nH]c2ccccc12	0.407	0.676	0.437	5.01	7.94
O=S(=O)(Nc1cccc2cccnc12)c1cccs1	1.82	5.62	3.24	4.57	10.7
Cc1nnc(NC(c2cnc3ccccc3c2)[C@H]2C[C@@H](O)C2)s1 (stereo not given in full)	4.07	> 10	> 10	1.58	> 10
Cn1c(Cc2n[n+]3c(-c4ccccc4)cc(-c4ccccc4)nc3n2C)n[n+]2c(-c3ccccc3)cc(-c3ccccc3)nc12	0.257	0.331	0.234	1.74	4.79
COc1ccc(C(=O)Nc2ccc3c(c2)C(=O)Nc2cccnc2O3)cc1OC	3.16	> 10	> 10	11	> 10
Cc1cccc(-c2nc(C[N+]3(Cc4nc(-c5cccc(C)c5)oc4C)CCCC3)c(C)o2)c1	2.82	4.79	3.39	> 10	> 10
CCC(C)NCC(O)Cn1c(-c2ccccc2)c(-c2ccccc2)c2cc(C)ccc21 (stereo not given)	1.02	2.57	2.75	1.51	> 10
CC(C)(C)[C@H]1CCc2c(sc(NC(=O)C3(F)C(F)(F)C(F)(F)C(F)(F)C(F)(F)C3(F)F)c2C#N)C1	2.19	2.95	2.57	5.75	4.57
O=C(Nc1ccc(C2(c3ccc(NC(=O)c4ccc(F)cc4)cc3)c3ccccc3C(=O)c3ccccc32)cc1)c1ccc(F)cc1	2.04	5.89	8.13	5.01	> 10
COc1ccc(Cl)cc1C(=O)Nc1cc(C2CC2)nn1-c1nc(C)cc(=O)[nH]1	1.78	> 10	8.13	> 10	> 10
CCC[N+]1(CC#C[C@@](O)(c2ccccc2)C2(C)CCCC2)CCCCC1	3.24	3.47	3.24	> 3.16	> 10
COc1ccc(-c2c(-c3cccc(OC)c3)[nH]c3c2c(=O)[nH]c(=O)n3C)cc1	> 10	> 10	> 10	> 10	> 10
CCN(CC)C(=O)c1cnc2snc(C)c2c1N1CCC(C(=O)Nc2c(C)cc(C)cc2C)CC1	3.24	> 10	> 10	5.89	> 10
Cc1nc(N2CCC(c3nc(-c4ccccc4)no3)CC2)c2c(C)noc2n1	2.51	> 10	> 10	1.86	> 10
